Measurements published in ChEMBL document CHEMBL1777666 (Bioorg Med Chem Lett, 2009).

Columns and labels:
[1] = Inhibition of human recombinant aldose reductase 2 expressed in Escherichia coli BL21 after 10 mins by spectrophotometry analysis
[2] = molecular target: Aldehyde reductase AKR1A1 (Homo sapiens); assay: Inhibition of human recombinant aldehyde reductase after 10 mins by spectrophotometry analysis

Row | SMILES | IC50 [1] [nM] | IC50 [2] [nM]
1 | O=C(O)Cn1cc(Cc2nc3c(F)c(F)cc(F)c3s2)c2ccccc21 [LIDORESTAT] | 5 | –
2 | CCc1ccc2c(Cc3nc4c(F)c(F)cc(F)c4s3)cn(CC(=O)O)c2n1 | 12 | –
3 | O=C(O)Cn1cc(Cc2nc3c(F)c(F)cc(F)c3s2)c2cccnc21 | 7 | –
4 | Cc1ccc2c(Cc3nc4c(F)c(F)cc(F)c4s3)cn(CC(=O)O)c2n1 | 8 | > 100000
